Data: paper PMC5607274, “An iterative compound screening contest method for identifying target protein inhibitors using the tyrosine-protein kinase Yes” (Scientific Reports, 2017)

What follows are compounds tested against T1, human recombinant Yes [a.a. 2–543 (end)] (Homo sapiens, UniProt P07947) (assay: ADP-Glo kinase assay, inhibition rates of Yes phosphorylation activity (first and second screening)). Settings: first screening; mean of n = 4 wells; 10 μmol L−1 compound.
T1 construct: human recombinant Yes [a.a; 2–543 (end)]; purchased BPS Bioscience 40488
T1 sequence (P07947 2-543): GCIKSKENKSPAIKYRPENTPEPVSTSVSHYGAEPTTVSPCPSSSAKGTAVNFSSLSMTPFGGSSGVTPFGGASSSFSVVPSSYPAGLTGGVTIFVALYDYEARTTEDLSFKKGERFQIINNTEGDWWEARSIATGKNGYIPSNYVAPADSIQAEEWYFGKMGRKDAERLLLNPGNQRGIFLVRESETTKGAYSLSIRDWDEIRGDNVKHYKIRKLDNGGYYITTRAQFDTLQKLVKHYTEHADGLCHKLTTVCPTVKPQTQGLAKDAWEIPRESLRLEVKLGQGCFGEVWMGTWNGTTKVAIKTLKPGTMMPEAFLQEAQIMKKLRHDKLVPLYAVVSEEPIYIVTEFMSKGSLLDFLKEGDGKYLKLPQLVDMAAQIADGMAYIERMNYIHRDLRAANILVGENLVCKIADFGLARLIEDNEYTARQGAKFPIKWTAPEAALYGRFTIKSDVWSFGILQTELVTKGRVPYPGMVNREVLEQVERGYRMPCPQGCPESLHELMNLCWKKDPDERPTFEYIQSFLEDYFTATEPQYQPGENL
Assay type: biochemical
How it was run: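 Hits from a first pass were rescreened after re-dissolution from fresh powder. The first pass reported the mean inhibition rate of quadruplicate wells per compound. Activity was that of recombinant human Yes [a.a. 2–543] kinase, read out with the ADP-Glo ADP-detection method.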
With `CCCn1c(NC(=O)c2ccc3c(c2)S(=O)(=O)N(C(C)C)C3=O)nc2ccccc21` [Compound Z641940000] the “First screening IR (inhibition rate)” value was 10%. For `FC(F)(F)c1ccnc(Nc2ccc(N3CCCCCC3)cc2)n1` [Compound Z642699568], the “First screening IR (inhibition rate)” value was -21%. In the case of `COc1cc(Br)c(S(=O)(=O)N(C)C(=O)C2CC2)cc1OC` [Compound Z643690740], the “First screening IR (inhibition rate)” value is reported as 0%. In the case of `CC(Nc1ccc(C#N)cn1)c1ccc(OCc2cccnc2)cc1` (centres unmarked) [Compound Z644822950], the “First screening IR (inhibition rate)” value is reported as 2%. `Cc1occc1C(=O)Nc1cc(Nc2nccc(C(F)(F)F)n2)ccc1F` [Compound Z645121524] was tested, and the “First screening IR (inhibition rate)” value was 14%. `COCCOc1ccc(CNc2ncnc3ccccc23)cn1` [Compound Z645525338] was tested, and the “First screening IR (inhibition rate)” value was -2%. `Cn1ncc2c(NCCOc3ccc4c(c3)OCO4)ncnc21` [Compound Z645593692] was tested, and the “First screening IR (inhibition rate)” value was -38%. With `CC(C)(C(=O)N1CCN(C(=O)C2CCC(=O)NC2)CC1)c1ccccc1` (centres unmarked) [Compound Z645877938] the “First screening IR (inhibition rate)” value was -20%. For `Cc1cccc(C)c1OC1CCN(c2ncnc3c2cnn3C)CC1` [Compound Z646031500], the “First screening IR (inhibition rate)” value was 8%. With `O=C1OCCN1Cc1ccc(Nc2nccc(C(F)(F)F)n2)cc1` [Compound Z646432252] the “First screening IR (inhibition rate)” value was 11%. For `Cn1cc(Nc2nccc(C(F)(F)F)n2)cn1` [Compound Z646439314], the “First screening IR (inhibition rate)” value was 5%. With `CC(NC(=O)Cn1nc(-c2ccccc2)ccc1=O)c1nc2ccccc2[nH]1` (centres unmarked) [Compound Z647256318] the “First screening IR (inhibition rate)” value was 5%. In the case of `O=C(Nc1c[nH]ccc1=O)c1ccc2c(c1)CC(c1ccccc1)OC2=O` (centres unmarked) [Compound Z649184702], the “First screening IR (inhibition rate)” value is reported as -7%. With `O=C(CCNC(=O)c1cc2cc(F)ccc2[nH]1)Nc1ccccn1` [Compound Z649200126] the “First screening IR (inhibition rate)” value was -10%. `CC(C)c1ccc2cc(C(=O)NCCN3CCS(=O)(=O)CC3)[nH]c2c1` [Compound Z649805708] was tested, and the “First screening IR (inhibition rate)” value was -31%. In the case of `Cc1cnc(C(=O)Nc2ccc3nc(-c4ccc(F)cc4)[nH]c3c2)cn1` [Compound Z651750688], the “First screening IR (inhibition rate)” value is reported as -2%. With `CS(=O)(=O)c1ccc(F)c(S(C)(=O)=O)c1` [Compound Z652718652] the “First screening IR (inhibition rate)” value was 31%. In the case of `O=C(CCc1cnn(-c2ccccc2)c1)Nc1n[nH]c(-c2ccccn2)n1` [Compound Z653343234], the “First screening IR (inhibition rate)” value is reported as -14%. With `Cc1ccc2[nH]c(C)c(CC(=O)Nc3n[nH]c(-c4ccccn4)n3)c2c1` [Compound Z653347886] the “First screening IR (inhibition rate)” value was -3%. `CS(=O)(=O)c1ccc(N2CCC2)c(S(C)(=O)=O)c1` [Compound Z666133744] was tested, and the “First screening IR (inhibition rate)” value was 8%. `CCN(CC(C)C)c1ccc(S(C)(=O)=O)cc1S(C)(=O)=O` [Compound Z666139280] was tested, and the “First screening IR (inhibition rate)” value was 7%. `CN(CC1CC1)c1ccc(S(C)(=O)=O)cc1S(C)(=O)=O` [Compound Z666145136] was tested, and the “First screening IR (inhibition rate)” value was 52%. `COc1cc(CNC(=O)c2ccc[nH]c2=O)ccc1OCC(N)=O` [Compound Z666252570] was tested, and the “First screening IR (inhibition rate)” value was 1%. With `Cc1cccn2cc(-c3ccc(NC(=O)c4ccc(=O)[nH]c4)cc3)nc12` [Compound Z666279820] the “First screening IR (inhibition rate)” value was -9%. `Cc1nn(-c2ccc(Br)cc2)c(C)c1C(=O)Nc1ncn[nH]1` [Compound Z727167436] was tested, and the “First screening IR (inhibition rate)” value was -2%. For `c1ccc2nc(Nc3cn[nH]c3)cnc2c1` [Compound Z729018028], the “First screening IR (inhibition rate)” value was 45%. For `CNc1ccc(Nc2nccc(C(F)(F)F)n2)cn1` [Compound Z729056288], the “First screening IR (inhibition rate)” value was -20%. In the case of `NC(=O)c1cnc(NCc2ccnc(N3CCCCC3)c2)c(Cl)c1` [Compound Z729056808], the “First screening IR (inhibition rate)” value is reported as 2%. In the case of `CCCNC(=O)CN(CCC)C(=O)c1cc(-c2ccccc2)nc2c1cnn2CC` [Compound Z729700802], the “First screening IR (inhibition rate)” value is reported as 0%. For `O=C1CC(C(=O)Nc2cc(CC3CCCCC3)[nH]n2)c2ccc(F)cc2N1` (centres unmarked) [Compound Z729744666], the “First screening IR (inhibition rate)” value was 22%. In the case of `COCCCn1c(=O)c2ccccc2n2c(=S)n(CN(Cc3ccc(N(C)C)cc3)C(C)C)nc12` [Compound Z729842360], the “First screening IR (inhibition rate)” value is reported as -9%. For `O=[N+]([O-])c1ccc(Nc2cccc(N3CCCC3)c2)c([N+](=O)[O-])c1` [Compound Z729847414], the “First screening IR (inhibition rate)” value was 20%. In the case of `O=C(CCCNC(=O)c1ccc(-c2ccccc2F)o1)Nc1ccc(Cl)cc1` [Compound Z730571712], the “First screening IR (inhibition rate)” value is reported as 2%. With `C#CCN(C1CCS(=O)(=O)C1)S(=O)(=O)c1ccccc1F` (centres unmarked) [Compound Z734126534] the “First screening IR (inhibition rate)” value was -10%. In the case of `Cn1c2ccccc2n2c3ccccc3c(=O)c(C#N)c12` [Compound Z734296158], the “First screening IR (inhibition rate)” value is reported as -2%. `Cn1c2ccccc2n2c3cccc(F)c3c(=O)c(C#N)c12` [Compound Z734467112] was tested, and the “First screening IR (inhibition rate)” value was -1%. For `CC(C)(C)n1nc(C(=O)Nc2cccc(C3SCCCS3)c2)cc1C1CC1` [Compound Z735448522], the “First screening IR (inhibition rate)” value was 2%. In the case of `Brc1ccc2nc(CNCc3cnc(-c4ccccc4)nc3)cn2c1` [Compound Z736057568], the “First screening IR (inhibition rate)” value is reported as 4%. In the case of `CCS(=O)(=O)c1ccc(S(=O)(=O)N2CCCSCC2)cc1` [Compound Z736543988], the “First screening IR (inhibition rate)” value is reported as 32%. In the case of `CCN(C(C)C)S(=O)(=O)c1ccc(S(C)(=O)=O)cc1` [Compound Z736710192], the “First screening IR (inhibition rate)” value is reported as -4%. `C/C=C/C=C/C(=O)NCc1cccc(C(=O)NCc2ccco2)c1` [Compound Z737550454] was tested, and the “First screening IR (inhibition rate)” value was 0%. With `CN(C(=O)c1ccc(NC(=O)C2CCCO2)cc1Cl)C1CCCCC1` (centres unmarked) [Compound Z738379554] the “First screening IR (inhibition rate)” value was 3%. In the case of `CN(C(=O)c1ccc(C2SCCCS2)cc1)c1ccc(C(N)=O)cc1` [Compound Z740420934], the “First screening IR (inhibition rate)” value is reported as 0%. `Cn1c(C(=O)Nc2ccc(NC(=O)c3ccco3)c(Cl)c2)cc2ccccc21` [Compound Z751335838] was tested, and the “First screening IR (inhibition rate)” value was 55%. For `Cc1nc(NCCn2cccn2)c2cnn(-c3ccccc3)c2n1` [Compound Z751573116], the “First screening IR (inhibition rate)” value was 14%. In the case of `O=C(Nc1cc(Cl)cc(Br)c1OC(F)F)C(=O)N1CCCSCC1` [Compound Z754942410], the “First screening IR (inhibition rate)” value is reported as 13%. In the case of `Cn1ccnc1C(O)(CC(=O)Nc1ccc(Oc2ncccn2)cc1)C(F)(F)F` (centres unmarked) [Compound Z757638538], the “First screening IR (inhibition rate)” value is reported as -7%. In the case of `O=C(Nc1ccc2nc(-c3ccco3)[nH]c2c1)c1ccc(Cl)nc1` [Compound Z757780044], the “First screening IR (inhibition rate)” value is reported as 51%. In the case of `Cn1c(C(=O)Oc2ccc(NC(=O)c3ccco3)cc2)cc2ccccc21` [Compound Z762214972], the “First screening IR (inhibition rate)” value is reported as -1%. With `O=C1CCc2cc(OC(=O)c3cn(-c4ccccc4)nc3-c3cccs3)ccc2N1` [Compound Z764721614] the “First screening IR (inhibition rate)” value was 63%. `NC(=O)Nc1ccc(-c2csc(CCc3ccccc3)n2)cc1` [Compound Z785638578] was tested, and the “First screening IR (inhibition rate)” value was 0%. `Cc1noc(C)c1COC(=O)c1c[nH]cc1-c1ccc(Cl)s1` [Compound Z796939908] was tested, and the “First screening IR (inhibition rate)” value was 0%. With `NCCN1C(=O)C2C3C=CC(C3)C2C1=O` (centres unmarked) [Compound Z803067872] the “First screening IR (inhibition rate)” value was 7%. With `CCOC(=O)N(C)c1ccc(Nc2nccc(C(F)(F)F)n2)cc1` [Compound Z805455424] the “First screening IR (inhibition rate)” value was -19%. With `CCS(=O)(=O)N1CCN(S(=O)(=O)C2CCS(=O)(=O)C2)CC1` (centres unmarked) [Compound Z805634984] the “First screening IR (inhibition rate)” value was 2%. `CN(c1ccc(I)cc1)S(=O)(=O)c1cn[nH]c1` [Compound Z805651486] was tested, and the “First screening IR (inhibition rate)” value was -1%. For `CS(=O)(=O)CCS(=O)(=O)c1ccc(N)cc1` [Compound Z808591212], the “First screening IR (inhibition rate)” value was -1%. For `O=C(c1ccc(OCC2CC2)cc1)N1CCC(c2nnc3n2CCC3)CC1` [Compound Z809056560], the “First screening IR (inhibition rate)” value was 2%. For `O=C1Cc2cc(S(=O)(=O)N3CCCc4cccc(OC(F)F)c43)ccc2N1` [Compound Z815677014], the “First screening IR (inhibition rate)” value was -4%. For `CCCN1CCN(c2ccc(Nc3ccc4nnnn4n3)cc2Cl)CC1` [Compound Z815791244], the “First screening IR (inhibition rate)” value was -24%. `Cc1cc(NCC(O)COc2ccc(F)cc2)nc2ccccc12` (centres unmarked) [Compound Z815806580] was tested, and the “First screening IR (inhibition rate)” value was -15%. With `Cc1nc(NCC2CCN(c3ccc(F)cc3)C2)c2cnn(C)c2n1` (centres unmarked) [Compound Z815820560] the “First screening IR (inhibition rate)” value was -4%. `O=C(Nc1cnc2ccccc2c1)c1ccc(-n2ccc(C(F)(F)F)n2)cc1` [Compound Z815840280] was tested, and the “First screening IR (inhibition rate)” value was 9%. For `NC(=O)c1ccc(COc2ccc(I)cc2)c(F)c1` [Compound Z816021628], the “First screening IR (inhibition rate)” value was -2%. For `Cn1ncc2c(N3CCCC3CO)ncnc21` (centres unmarked) [Compound Z817034034], the “First screening IR (inhibition rate)” value was 3%. `O=C(Oc1cccnc1Br)c1nn(-c2ccccc2)c(=O)c2ccccc12` [Compound Z817738176] was tested, and the “First screening IR (inhibition rate)” value was 23%.

Same assay, conditions: second screening, dissolved from fresh powder; n = 4; 10 μmol L−1 compound
In the case of `c1ccc2nc(Nc3cn[nH]c3)cnc2c1` [Compound Z729018028], the “Second screening IR (inhibition rate)” value is reported as -12%. For `O=C1CCc2cc(OC(=O)c3cn(-c4ccccc4)nc3-c3cccs3)ccc2N1` [Compound Z764721614], the “Second screening IR (inhibition rate)” value was -5%.
